Reference: patent publication US10111420B2 (priority 2011, dated 2018)

Assay: Sessile advancing contact angle of distilled water containing surfactants
Format: physicochemical
Conditions: water on oven dry P. radiata
Description: The contact angle data is recorded using water because resins, by their nature, can continue to polymerise resulting in changes in viscosity which will change the wetting behaviour of the resin/surfactant mix. […] Water is also present in all amino resins as the carrier of the resin solids so it is important to understand the effect of the surfactant on water because this will have a direct relationship on the wetting performance of the resin. The contact angle shown below is the average of at least 5 measurements. The measurements were taken after 1 second and in some instances after half a second. Where the entry is “n/a” it indicates complete wetting i.e. a contact angle of 0° or very close to 0°.

CCCCCCCCCCCCOS(=O)(=O)[O-].[Na+] [SDS]
Contact angle @ 1 sec (surfactant 0.05%, octanol 0.1%): 31.0 °
Contact angle @ 1 sec (surfactant 0.1%, octanol 0.1%): 9.5 °
Contact angle @ 1 sec (surfactant 0.1%, octanol 0.25%): 8.99 °
